Converted amounts (≈) assume the structure as drawn.
How the values were obtained:
hERG K+ channel = target: T1, hERG K+ channel (Homo sapiens, UniProt Q12809); test: hERG channel inhibition assay; format: cell-based; details: patch-clamp (voltage-clamp, whole-cell); for IC50: CHO cells expressing hERG; for IC20: human, CHO cells stably expressing hERG
T1 construct: expressed in transfected cells; host or cells: CHO (Chinese hamster ovary) cells, CHOhERG
Protocol: hERG Channel Inhibition Assay
The hERG K^+ channels were cloned in humans and stably expressed in a CHO (Chinese hamster ovary) cell line. CHOhERG cells were used for patch-clamp (voltage-clamp, whole-cell) experiments. Cells were stimulated by a voltage pattern to activate hERG channels and conduct IKhERG currents (rapid delayed outward rectifier potassium current of the hERG channel). After the cells were stabilized for a few minutes, the amplitude and kinetics of IKhERG were recorded at a stimulation frequency of 0.1 Hz (6 bpm). Thereafter, the test compound was added to the preparation at increasing concentrations. For each concentration, an attempt was made to reach a steady-state effect, usually, this was achieved within 3-10 min at which time the next highest concentration was applied. The amplitude and kinetics of IKhERG are recorded in each concentration of the drug which were compared to the control values (taken as 100%). (references: Redfem W S, Carlsson L, Davis A S, Lynch W G, MacKenzie I, Palethorpe S, Siegl P K, Strang I, Sullivan A T, Wallis R, Camm A J, Hammond T G. 2003; Relationships between preclinical cardiac electrophysiology, clinical QT interval prolongation and torsade de pointes for a broad range of drugs: evidence for a provisional safety margin in drug development. Cardiovasc. Res. 58:32-45, Sanguinetti M C, Tristani-Firouzi M. 2006; hERG potassium channels and cardiac arrhythmia. Nature 440:463-469, Webster R, Leishman D, Walker D. 2002; Towards a drug concentration effect relationship for QT prolongation and torsades de pointes. Curr. Opin. Drug Discov. Devel. 5:116-26).

[1] = tested on: Balb/c 3T3 mouse fibroblasts; test: 3T3 in vitro phototoxicity assay; format: cell-based; details: Neutral Red uptake
Excerpt: 3T3 In Vitro Phototoxicity Assay
Phototoxicity is defined as a toxic response that is elicited after the first exposure of the skin to certain chemicals and subsequent exposure to light, or that is induced similarly by skin irradiation after systemic administration of a chemical substance. The assay used in this study is designed to detect the phototoxic potential of a chemical by using a simple in vitro cytotoxicity assay with Balb/c 3T3 mouse fibroblasts. The principle of this test is a comparison of the cytotoxicity of a chemical when tested with and without exposure to a non-toxic dose of UVA-light. Cytotoxicity is expressed as a dose dependent reduction of the growth rate of cells as determined by uptake of the vital dye Neutral Red one day after treatment.
A small amount of substance was weighed and formulated freshly in DMSO just before the start of the exposure of the cells. This stock solution or appropriate dilutions with DMSO were added to the cell suspensions to obtain the required final concentrations. All solutions were generally prepared in Eppendorf caps and discarded after use.
For this study the Neutral Red uptake (NRU) assay of Borenfreund and Puemer (Borenfreund, E, Puemer J A. Toxicity determined in vitro by morphological alterations and Neutral Red absorption. Toxicology Lett. 1985; 24:119-124) modified according to INVITTOX protocol No 78 (ERGATT/FRAME data bank of in vitro techniques in toxicology. INVITTOX PROTOCOL No 78. 3T3 NRU Phototoxicity Assay. March 1994) has been adapted to examine a possible phototoxic potential of the test item. This assay is based on the active uptake of the Neutral Red dye into the lysosomes of cultured murine fibroblasts. Because lysosomal membranes are known to be a site of action of many phototoxic compounds, this assay can provide a measure of potential for phototoxic injury.
A murine fibroblasts clone A 31 (ATCC no. CCL 163—passage No. 108) were cultured in 175 cm2 tissue culture grade flasks, containing sDMEM (Dulbecco's Minimal Essential Medium, supplemented with 10% fetal calf serum, 2 mM L-glutamine, 100 units/ml Penicillin and 100 μg/ml streptomycin) at 37° C. in a humidified atmosphere of 6% C02. Before cells approach confluence they were removed from flasks by trypsinisation. Prior to use in an assay, the cells were transferred to 96-well microtiter plates at a concentration of 1×10^4 cells/well in 100 μl volumes of sDMEM and allowed to attach for 24 h.
For incubation with murine fibroblasts, the test item was diluted in PBS/3% DMSO (detailed concentrations see in results).
Culture medium (Dulbecco's Modified Eagle Medium (DMEM), GlutaMAX (Gibco Ref 21885-025), 10% Fetal Bovine Serum (FBS) (Gibco Ref 10270-106), 100 IU/ml Penicillin and 100 μg/ml Streptomycin (Gibco Ref 15140-122)) was removed from the wells and murine fibroblasts were washed with PBS. Afterwards 100 μL of PBS/3% DMSO containing the test item was added and target cells were incubated for 1 h at 37° C. with 6% CO2.
For each test item the microtiter plates were prepared according to Table 4. “UVA plates” were exposed to approx. 5 J/cm2 UVA light, the “Dark plates” were kept in the dark and served as cytotoxicity control. Plates with chlorpromazine hydrochloride served as positive control. UV flux was measured with a UV-meter (Dr. Gröbel RM21).
Following UV irradiation, the test item was removed from the wells (one washing step with PBS) and replaced with sDMEM. Target cells were then incubated overnight at 37° C. in 6% CO2.
Each plate contained wells with cells and solvent but without test item which were either not incubated with Neutral Red solution (0% standard—S1) or were stained with Neutral Red (100% standard—S2) for calculation of the standard cell viability curve. Wells labeled with U01-U08 contained the different test item concentrations.
After the incubation the wells to be assayed were filled with 100 μL of the sDMEM containing Neutral Red. […]

T1 sequence (Q12809 whole entry): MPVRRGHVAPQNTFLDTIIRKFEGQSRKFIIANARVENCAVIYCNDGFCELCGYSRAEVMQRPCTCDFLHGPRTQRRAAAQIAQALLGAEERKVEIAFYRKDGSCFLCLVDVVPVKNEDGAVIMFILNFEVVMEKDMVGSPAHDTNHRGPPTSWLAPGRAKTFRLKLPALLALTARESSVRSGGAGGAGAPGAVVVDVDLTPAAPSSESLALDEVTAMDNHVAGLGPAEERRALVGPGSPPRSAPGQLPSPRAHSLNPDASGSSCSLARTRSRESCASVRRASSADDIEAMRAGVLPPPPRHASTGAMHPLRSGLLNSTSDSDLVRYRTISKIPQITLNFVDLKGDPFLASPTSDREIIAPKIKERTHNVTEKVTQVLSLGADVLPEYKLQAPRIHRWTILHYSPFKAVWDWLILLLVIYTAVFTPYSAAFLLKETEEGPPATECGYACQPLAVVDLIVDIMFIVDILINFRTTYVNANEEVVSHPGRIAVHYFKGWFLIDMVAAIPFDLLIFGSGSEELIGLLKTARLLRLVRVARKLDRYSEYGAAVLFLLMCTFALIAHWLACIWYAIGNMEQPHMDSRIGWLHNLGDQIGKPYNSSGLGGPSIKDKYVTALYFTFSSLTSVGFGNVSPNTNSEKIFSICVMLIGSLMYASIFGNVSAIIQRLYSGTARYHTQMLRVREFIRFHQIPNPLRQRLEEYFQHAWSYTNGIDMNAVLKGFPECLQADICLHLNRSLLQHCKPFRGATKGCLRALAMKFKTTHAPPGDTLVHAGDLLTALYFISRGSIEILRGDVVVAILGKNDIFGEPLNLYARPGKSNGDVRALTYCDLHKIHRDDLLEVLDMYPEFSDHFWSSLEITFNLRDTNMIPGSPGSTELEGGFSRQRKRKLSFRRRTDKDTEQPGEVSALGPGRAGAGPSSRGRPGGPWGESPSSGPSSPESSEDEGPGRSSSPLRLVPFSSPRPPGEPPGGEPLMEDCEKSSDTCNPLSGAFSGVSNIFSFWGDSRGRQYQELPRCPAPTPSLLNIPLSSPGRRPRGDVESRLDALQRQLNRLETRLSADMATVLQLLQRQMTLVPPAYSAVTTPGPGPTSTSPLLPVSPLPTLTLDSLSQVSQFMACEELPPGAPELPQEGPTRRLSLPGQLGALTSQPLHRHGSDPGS

| Structure (SMILES) | IC50 (hERG K+ channel) [µM] | IC20 (hERG K+ channel) [µM] | Phototoxicity factor ([1]; Factor=IC50(−UV)/IC50(+UV), cut-off factor >5) | IC50 ([1]; Mus musculus, BALB/c3T3, light or radiation study, with approx. 5 J/cm2 UVA light) [µg/mL] |
| --- | --- | --- | --- | --- |
| CO[C@H]1CNC[C@@H]1N(C)c1ccc2c(c1)CN1[C@H](C)CN(c3ccc(C#N)c4ncccc34)C[C@H]21 [Example 64, 5-[(4R,10bS)-8-[[(3S,4S)-4-methoxypyrrolidin-3-yl]-methyl-amino]-4-methyl-3,4,6,10b-tetrahydro-1H-pyrazino[2,1-a]isoindol-2-yl]quinoline-8-carbonitrile] | > 20 | 8.5 | – | – |
| C[C@@H]1CN(c2ccc(C#N)c3ncccc23)C[C@@H]2c3ccc(NCCN4CC[C@H](O)C4)cc3CN12 [Example 68, 5-[(4R,10bS)-8-[2-[(3S)-3-hydroxypyrrolidin-1-yl]ethylamino]-4-methyl-3,4,6,10b-tetrahydro-1H-pyrazino[2,1-a]isoindol-2-yl]quinoline-8-carbonitrile] | > 20 | 5.6 | – | – |
| C[C@@H]1CN(c2ccc(C#N)c3ncccc23)C[C@@H]2c3ccc(NCC4COCCN4)cc3CN12 (stereo partly drawn) [Example 57, 5-[(4R,10bS)-4-methyl-8-(morpholin-3-ylmethylamino)-3,4,6,10b-tetrahydro-1H-pyrazino[2,1-a]isoindol-2-yl]quinoline-8-carbonitrile] | > 20 | > 10 | – | – |
| C[C@H]1CN(c2ccc(C#N)c3ncccc23)C[C@H]2c3ccc(N4CCNCC4)cc3CN12 [Example 2, 5-[(4S,10bR)-4-methyl-8-piperazin-1-yl-3,4,6,10b-tetrahydro-1H-pyrazino[2,1-a]isoindol-2-yl]quinoline-8-carbonitrile] | > 20 | > 10 | – | – |
| C[C@@H]1CN(c2ccc(C#N)c3ncccc23)C[C@@H]2c3ccc(N4C[C@H]5CNCCN5C4=O)cc3CN12 [Example 72, 5-[(4R,10bS)-8-[(8aR)-3-oxo-1,5,6,7,8,8a-hexahydroimidazo[1,5-a]pyrazin-2-yl]-4-methyl-3,4,6,10b-tetrahydro-1H-pyrazino[2,1-a]isoindol-2-yl]quinoline-8-carbonitrile] | > 20 | > 10 | – | – |
| CO[C@@H]1CNC[C@@H]1Nc1ccc2c(c1)CN1[C@H](C)CN(c3ccc(C#N)c4ncccc34)C[C@H]21 [Example 60, 5-[(4R,10bS)-8-[[(3S,4R)-4-methoxypyrrolidin-3-yl]amino]-4-methyl-3,4,6,10b-tetrahydro-1H-pyrazino[2,1-a]isoindol-2-yl]quinoline-8-carbonitrile] | > 20 | > 10 | – | – |
| [2H]c1ccc2c(N3C[C@@H](C)N4Cc5cc(N6CC7(CNCCO7)C6)ccc5[C@H]4C3)ccc(C#N)c2n1 [Example 90, 5-[(4R,10bS)-4-methyl-8-(5-oxa-2,8-diazaspiro[3.5]nonan-2-yl)-3,4,6,10b-tetrahydro-1H-pyrazino[2,1-a]isoindol-2-yl]-2-deuterio-quinoline-8-carbonitrile] | – | – | >2 | 50.6 (≈ 108 µM) |
| C[C@@H]1CN(c2ccc(C#N)c3ncccc23)C[C@@H]2c3ccc(NC[C@H]4CNCCO4)cc3CN12 [Example 59, 5-[(4R,10bS)-4-methyl-8-[[(2R)-morpholin-2-yl]methylamino]-3,4,6,10b-tetrahydro-1H-pyrazino[2,1-a]isoindol-2-yl]quinoline-8-carbonitrile] | > 20 | > 10 | – | – |
